Where a name gives a salt, the structure may show the parent alone.
Key:
[1] = PK parameters (Cmax, AUC) estimated from measured drug concentrations with a PK model (Example 1); assay type: in vivo, human
[2] = Plasma concentrations of d6-DM, d3-DX, d3-3-MM and Q (Example 1); conditions: 2 to 3 hours after morning dose
Procedure: Plasma samples were separated by centrifugation and then frozen at −20° C. until assayed at the analytical unit.

[3] = tested on: negative symptoms of schizophrenia; conditions: Lee et al. 2015, cited from earlier work
[4] = Visit 4 (Week 6), d6-DM/Q/d6-DM/Q, All metabolizer types
[5] = Visit 4 (Week 6), d6-DM/Q/d6-DM/Q, Extensive metabolizer subgroup
[6] = Visit 4 (Week 6), d6-DM/Q/d6-DM/Q, Intermediate metabolizer subgroup
[7] = Visit 4 (Week 6), d6-DM/Q/d6-DM/Q, Poor metabolizer subgroup
[8] = Visit 4 (Week 6), d6-DM/Q/d6-DM/Q, Ultra-Rapid metabolizer subgroup
[9] = Visit 7 (Week 12), d6-DM/Q/d6-DM/Q, All metabolizer types
[10] = Visit 7 (Week 12), d6-DM/Q/d6-DM/Q, Extensive metabolizer subgroup
[11] = Visit 7 (Week 12), d6-DM/Q/d6-DM/Q, Intermediate metabolizer subgroup
[12] = Visit 7 (Week 12), d6-DM/Q/d6-DM/Q, Ultra-Rapid metabolizer subgroup
[13] = Visit 7 (Week 12), placebo/d6-DM/Q, All metabolizer types
[14] = Visit 7 (Week 12), placebo/d6-DM/Q, Extensive metabolizer subgroup
[15] = Visit 7 (Week 12), placebo/d6-DM/Q, Intermediate metabolizer subgroup
[16] = Visit 7 (Week 12), placebo/d6-DM/Q, Poor metabolizer subgroup
[17] = subgroup of 13 patients with ALDH2*2 allele

## [2H]C([2H])([2H])Oc1ccc2c(c1)[C@]13CCCC[C@@H]1[C@H](C2)N(C([2H])([2H])[2H])CC3 [d6-DM, deuterated [d6]-dextromethorphan hydrobromide]
[1]; [4]
  AUC, mean (SD): 456.2 (362.05) h × ng/mL
  AUC, median (min, max): 355.4 (73, 1793) h × ng/mL
  Cmax, mean (SD): 51.6 (38.53) ng/mL
  Cmax, median (min, max): 40.0 (8, 192) ng/mL
[1]; [5]
  AUC, mean (SD): 333.3 (255.24) h × ng/mL
  AUC, median (min, max): 271.9 (73, 1183) h × ng/mL
  Cmax, mean (SD): 38.2 (27.99) ng/mL
  Cmax, median (min, max): 32.2 (8, 130) ng/mL
[1]; [6]
  AUC, mean (SD): 573.2 (418.66) h × ng/mL
  AUC, median (min, max): 401.7 (139, 1793) h × ng/mL
  Cmax, mean (SD): 63.9 (44.15) ng/mL
  Cmax, median (min, max): 48.1 (17, 192) ng/mL
[1]; [7]
  AUC, mean (SD): 204.6 (na) h × ng/mL
  AUC, median (min, max): 204.6 (205, 205) h × ng/mL
  Cmax, mean (SD): 28.7 (na) ng/mL
  Cmax, median (min, max): 28.7 (29, 29) ng/mL
[1]; [8]
  AUC, mean (SD): 468.0 (na) h × ng/mL
  AUC, median (min, max): 468.0 (468, 468) h × ng/mL
  Cmax, mean (SD): 58.6 (na) ng/mL
  Cmax, median (min, max): 58.6 (59, 59) ng/mL
[1]; [9]
  AUC, mean (SD): 473.4 (375.01) h × ng/mL
  AUC, median (min, max): 369.4 (70, 1810) h × ng/mL
  Cmax, mean (SD): 53.4 (40.09) ng/mL
  Cmax, median (min, max): 42.3 (8, 194) ng/mL
[1]; [10]
  AUC, mean (SD): 336.7 (244.01) h × ng/mL
  AUC, median (min, max): 288.9 (70, 1127) h × ng/mL
  Cmax, mean (SD): 38.7 (26.74) ng/mL
  Cmax, median (min, max): 34.1 (8, 124) ng/mL
[1]; [11]
  AUC, mean (SD): 601.9 (442.90) h × ng/mL
  AUC, median (min, max): 375.7 (132, 1810) h × ng/mL
  Cmax, mean (SD): 67.0 (46.98) ng/mL
  Cmax, median (min, max): 45.9 (16, 194) ng/mL
[1]; [12]
  AUC, mean (SD): 498.8 (na) h × ng/mL
  AUC, median (min, max): 498.8 (499, 499) h × ng/mL
  Cmax, mean (SD): 62.1 (na) ng/mL
  Cmax, median (min, max): 62.1 (62, 62) ng/mL
[1]; [13]
  AUC, mean (SD): 439.6 (248.41) h × ng/mL
  AUC, median (min, max): 413.0 (53, 1081) h × ng/mL
  Cmax, mean (SD): 50.8 (27.44) ng/mL
  Cmax, median (min, max): 47.7 (7, 121) ng/mL
[1]; [14]
  AUC, mean (SD): 404.3 (239.02) h × ng/mL
  AUC, median (min, max): 368.0 (53, 1081) h × ng/mL
  Cmax, mean (SD): 47.2 (26.57) ng/mL
  Cmax, median (min, max): 44.2 (7, 121) ng/mL
[1]; [15]
  AUC, mean (SD): 492.1 (271.83) h × ng/mL
  AUC, median (min, max): 492.9 (124, 945) h × ng/mL
  Cmax, mean (SD): 56.2 (29.94) ng/mL
  Cmax, median (min, max): 56.1 (15, 106) ng/mL
[1]; [16]
  AUC, mean (SD): 427.4 (na) h × ng/mL
  AUC, median (min, max): 427.4 (427, 427) h × ng/mL
  Cmax, mean (SD): 47.9 (na) ng/mL
  Cmax, median (min, max): 47.9 (48, 48) ng/mL
[2]; d6-DM/Q/d6-DM/Q group at Visit 4 (Week 6)
  mean plasma concentration, all patients: 49.7 ng/mL
[2]; d6-DM/Q/d6-DM/Q group at Visit 7 (Week 12)
  mean plasma concentration, all patients: 53.2 ng/mL
[2]; placebo/d6-DM/Q group at Visit 7 (Week 12)
  mean plasma concentration, all patients: 54.0 ng/mL

## COc1ccc2c(c1)[C@@]13CCCC[C@H]1[C@@H](C2)N(C)CC3 [dextromethorphan, (+)-3-methoxy-N-methylmorphinan]
[3]; add-on to risperidone
  PANSS and SANS scores, risperidone and dextromethorphan vs. risperidone and placebo (in words): No significant differences
[3]; [17]
  PANSS scores including PANSS negative symptom subscale, dextromethorphan vs. placebo (in words): No significant difference
  total SANS scores, dextromethorphan vs. placebo (in words): significant difference

Source: patent US20220071989A1, “METHODS OF TREATING NEGATIVE SYMPTOMS OF SCHIZOPHRENIA USING DEUTERATED DEXTROMETHORPHAN AND QUINIDINE” (AVANIR PHARMACEUTICALS, INC., priority 2019, published 2022)
